SMILES strings stand for the structures. Calls of active or inactive are those of the source.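 The calls were made as follows: active = AC50 no more than ten times the top concentration tested, that is within one log above it; inconclusive = flat curve fit with activity between 30% and 70%, or invalid poor fit; inactive = AC50 beyond ten times the top tested dose.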

Results on 91 compounds are retold here after PubChem BioAssay AID463204 (Broad Institute, 2010).

This assay deals with S. cerevisiae Mot1-301 ts growth rescue, BacTiter-Glo ATP luminescence. The assay is described as follows: restored Mot1-301 yeast growth at 38.5C – whole organism, S. cerevisiae, Mot1-301 ts mutant, luminescence, dose retest, SUMOylation pathway inhibitor project, confirmation (AID 463204).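 Also: growth at restrictive 38.5 degrees C of Mot1-301 OY566 strain; actives raise luminescence by restoring growth of the ts mutant at high temperature.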
The term AC50 denotes the concentration at which the activity in the assay is half-maximal. `O=c1c2c3c(sc2n2cnnc2n1-c1ccccc1)N(Cc1ccccc1)CCC3`: the AC50 is > 42 µM (inactive).

Consider `Cc1ccc(C)c(C(C)NC(=O)c2ccncc2)c1` (stereo unspecified), for which the AC50 is > 42 µM (inactive).

Consider `NNC(=O)c1oc2nc(-c3ccccc3)cc(-c3ccccc3)c2c1N`, for which the AC50 is > 42 µM (inactive).

Take `Oc1c(Br)cc(Cl)cc1C=Nc1ccccc1Br`: the AC50 was 4.15 µM.

Turning to `Cc1ccc(S(=O)(=O)N2CCOCC2)cc1NC(=O)COC(=O)CNC(=O)c1ccccc1`, the AC50 is > 42 µM (inactive).

Turning to `Cc1c(NP(=O)(c2ccc(Br)cc2)c2ccc(Br)cc2)c(=O)n(-c2ccccc2)n1C`, the AC50 is > 42 µM (inactive).

Turning to `Cc1ccc(-c2nnc(SCC#N)n2N)cc1`, the AC50 is > 42 µM (inactive).

On to `O=S1(=O)C=C(Sc2nnc(-c3ccccc3)o2)c2ccccc21`, for which the AC50 is 1.47 µM.

On to `O=C1c2nccnc2C(=O)N1c1ccc(C(F)(F)F)cc1`, for which the AC50 was > 42 µM (inactive).

On to `Cc1ccc(N2CN(CCc3ccccc3)CNC2=S)cc1`, for which the AC50 is > 42 µM (inactive).

With `COc1ccc(/C=C/C(=O)NC(=S)Nc2ccccn2)cc1`, the AC50 was > 42 µM (inactive).

In the case of `O=CNCCCc1nc2ccccc2n1CCc1ccccc1`, the AC50 is > 42 µM (inactive).

On to `CC(C(=O)Nc1ccccc1-c1ccccc1)N1CCN(Cc2ccccc2)CC1` (stereo unspecified), for which the AC50 was > 42 µM (inactive).

As for `CCOC(=O)c1nc(Nc2ccccc2CC)c2ccccc2n1`, the AC50 was > 42 µM (inactive).

On to `CCOc1cc(-c2ccccc2)nc(N)n1`, for which the AC50 is > 42 µM (inactive).

Turning to `CCCc1ccc(S(=O)(=O)NCCc2ccncc2)cc1`, the AC50 was > 42 µM (inactive).

Take `O=C(NCCCn1ccnc1)Nc1cccc2ccccc12`: the AC50 was > 42 µM (inactive).

As to `COc1ccc2c(c1)OC[C@H]1[C@H]2N2C(=O)c3cc(C)ccc3NC(=O)[C@@]2(C)[C@H]1c1ccccc1`, the AC50 is 1.39 µM.

On to `Cc1c(Cl)c([N+](=O)[O-])nn1CC(=O)NC12CC3CC(CC(C3)C1)C2`, for which the AC50 was > 42 µM (inactive).

On to `Cc1cc(C)n(C(=O)CNC(=O)c2ccc3c(c2)OCCO3)n1`, for which the AC50 is > 42 µM (inactive).

Regarding `CCc1ccccc1NC(=S)NNC(=O)c1ccccc1Cl`, the AC50 is > 42 µM (inactive).

Turning to `OCCN1CN=C(Nc2nc3ccccc3o2)NC1`, the AC50 is > 42 µM (inactive).

For `c1ccc2c(c1)OCCOCCOc1ccccc1OCCOCCO2`, the AC50 was > 42 µM (inactive).

Take `COCCn1c(SCC(=O)N2CCCC2)nnc1-c1ccoc1C`: the AC50 was > 42 µM (inactive).

On to `Fc1cccc(F)c1-c1nc(-c2ccncc2)no1`, for which the AC50 was > 42 µM (inactive).

As to `CCN(CC)CCCN(Cc1cc2cc(OC)ccc2[nH]c1=O)C(=O)Nc1ccc(F)cc1`, the AC50 was > 42 µM (inactive).

Consider `CC1CCN(CCCCOc2ccc(F)cc2)CC1`, for which the AC50 was > 42 µM (inactive).

On to `COc1ccc(NC(=O)CC(C)C)c(OC)c1`, for which the AC50 is > 42 µM (inactive).

On to `O=C(CCn1cnnn1)Nc1ccc(Cl)cc1Cl`, for which the AC50 was > 42 µM (inactive).

For `O=C(O)CNS(=O)(=O)Cc1ccccc1`, the AC50 is > 42 µM (inactive).

Take `Cc1nnsc1C(=O)N1CCC(CO)(Cc2ccccc2Cl)CC1`: the AC50 was > 42 µM (inactive).

Consider `N[C@@H](Cc1ccc(O)c(I)c1)C(=O)O`, for which the AC50 was > 42 µM (inactive).

With `CC(C)n1c(O)c(N=Nc2ccccn2)c2ccccc21`, the AC50 was > 42 µM (inactive).

Consider `COc1ccc(-n2c(C)cc(C(=O)CN3C(=O)NC4(CCCc5sccc54)C3=O)c2C)cc1` (stereo unspecified), for which the AC50 was > 42 µM (inactive).

For the compound `Cc1cccc(N(C(=O)c2ccc(CN3CCOCC3)o2)C(C(=O)NC2CCCCC2)c2ccc(F)cc2)c1` (stereo unspecified), the AC50 is > 42 µM (inactive).

Take `Cc1cc(C)c(NC(=O)CNC(=O)c2cc([N+](=O)[O-])ccc2N2CCOCC2)c(C)c1`: the AC50 is > 42 µM (inactive).

As for `COc1ccccc1CNC(=O)CN(c1ccc(C)cc1)S(=O)(=O)c1c(C)n[nH]c1C`, the AC50 is > 110 µM (inactive).

As to `CCN(CC)c1ccc(C=C2C(=O)OC(c3ccccc3)OC2=O)cc1` (stereo unspecified), the AC50 was > 42 µM (inactive).

Turning to `Clc1ccc(N=c2ssnc2Cl)nc1`, the AC50 was 0.78 µM.

`Cc1nn(C)c(Cl)c1CN1CCN(CCC(C)C)C(CCO)C1` (stereo unspecified): the AC50 is > 42 µM (inactive).

As for `CC1CCCC(C)N1CCCNC(=O)c1csc2c1CCCCC2` (stereo unspecified), the AC50 was > 42 µM (inactive).

In the case of `O=C(CSc1nc(=O)n2ccccc2n1)N1CCN(c2ccccc2)CC1`, the AC50 is > 42 µM (inactive).

For the compound `Cc1nnc(N=c2ssnc2Cl)o1`, the AC50 is 3.31 µM.

`CCOC(=O)N1CCN(C(=O)c2ccccc2-c2ccccc2)CC1`: the AC50 is > 42 µM (inactive).

Regarding `CCCCNC(=O)N1CCC(CCC(=O)N(C)Cc2ccccc2)CC1`, the AC50 was > 42 µM (inactive).

Turning to `O=C(Nc1ccc(OC(F)(F)F)cc1)c1ccc2ccccc2n1`, the AC50 was > 42 µM (inactive).

For the compound `CCOC(=O)NNC(=O)CCn1c2c(c3ccccc31)CCCC2`, the AC50 was > 42 µM (inactive).

With `CC1CCCC(C)N1/N=C/c1cc(Br)cc(Br)c1O` (stereo unspecified), the AC50 is 12.5 µM.

Turning to `N/C(=N\NC(=O)c1sccc1OCc1ccc(Cl)cc1Cl)c1ccccn1`, the AC50 is > 42 µM (inactive).

With `O=c1[nH]cnc2ccc([N+](=O)[O-])cc12`, the AC50 is > 42 µM (inactive).

For `OC(COCc1cccs1)CN1CCCCCC1` (stereo unspecified), the AC50 is > 42 µM (inactive).

For `COc1cccc(C(=O)N2CCN(S(=O)(=O)Cc3ccccc3)CC2)c1OC`, the AC50 was > 42 µM (inactive).

On to `COC(=O)c1ccccc1NC(=O)CSc1nnnn1CC(=O)O`, for which the AC50 was > 42 µM (inactive).

Consider `CCCCC(=O)Nc1cc(OC)c(NC(=O)C2CCCCC2)cc1OC`, for which the AC50 is > 42 µM (inactive).

Turning to `CCCN(CC1CC1)C(=O)COc1ccccc1C(=O)NCc1ccccc1`, the AC50 is > 42 µM (inactive).

Consider `COc1ccc(C2=NN(C(=S)Nc3ccccc3)C(c3ccccc3)C2)cc1` (stereo unspecified), for which the AC50 is > 42 µM (inactive).

Regarding `CN(C)/C(CN1CCCCC1)=C1\N=C(c2ccccc2)OC1=O`, the AC50 was > 42 µM (inactive).

For `Fc1ccc2nc(C3CCN(Cc4nc(CC5CC5)no4)CC3)[nH]c2c1`, the AC50 was > 42 µM (inactive).

For the compound `CCN(CC(=O)NCc1ccc(Cl)cc1)C(=O)/C=C/c1ccc(C#N)cc1`, the AC50 is > 42 µM (inactive).

For the compound `Cc1c(Cl)cccc1NC(=O)Cn1c(CCC(=O)O)ccc1-c1ccccc1`, the AC50 is > 42 µM (inactive).

With `COc1ccc(-c2nnc(-c3cc4c(ccc5ccccc54)oc3=O)o2)cc1`, the AC50 is > 42 µM (inactive).

Turning to `CC1(C)CCc2cc(CN3CCN(c4ccccn4)CC3)ccc2O1`, the AC50 is > 42 µM (inactive).

Turning to `CCN1CSC(=S)N(Cc2ccc(OC)cc2)C1`, the AC50 is 4.01 µM.

As to `CCOC(=O)CNC(=O)c1cccnc1`, the AC50 is > 42 µM (inactive).

Take `CN(C)/C=C/C(=O)c1ccncc1`: the AC50 is > 42 µM (inactive).

As for `CN(Cc1ccc(C(C)(C)C)cc1)C(=O)c1ccc2c(=O)n3c(nc2c1)CCC3`, the AC50 is > 42 µM (inactive).

Take `CS(=O)(=O)c1ccc(Cl)c(C(=O)O)c1`: the AC50 is > 42 µM (inactive).

Regarding `COc1cc(NC(=O)c2ccccc2F)c(OC)cc1NC(=O)CN1CCCCC1`, the AC50 is > 42 µM (inactive).

With `COc1ccc(N=C2SC(C(=O)O)CC(=O)N2Cc2ccc(OC)c(OC)c2)cc1` (stereo unspecified), the AC50 is > 42 µM (inactive).

For `C=CCSC1=C(C#N)C(c2ccc(C(C)C)cc2)CC(=O)N1` (stereo unspecified), the AC50 was 8.36 µM.

Consider `COCC(C)n1c(C)cc(C(=O)CSc2ccc(NC(C)=O)cc2)c1C` (stereo unspecified), for which the AC50 is > 42 µM (inactive).

As for `COc1ccc(/C=N\NC(=O)c2cc(OCC(F)(F)F)ccc2OCC(F)(F)F)cc1`, the AC50 is > 42 µM (inactive).

As for `CCOC(=O)Nc1sc(=S)n(C)c1C`, the AC50 was > 42 µM (inactive).

Turning to `Cc1ccc(NC(=O)CSCC(=O)Nc2ccccc2N2CCCC2)cc1`, the AC50 was > 42 µM (inactive).

As for `CCOc1ccc(NC(=O)CSc2nnc(Cc3csc(C)n3)o2)cc1`, the AC50 is > 42 µM (inactive).

As for `COc1ccccc1-n1c(O)c(/C=C2\C=Nc3ccccc32)c(=O)[nH]c1=O`, the AC50 is > 42 µM (inactive).

On to `CCc1cc2c(=O)c(-c3nc4ccccc4n3C)c(C)oc2c(CN2CCOCC2)c1O`, for which the AC50 was > 42 µM (inactive).

Turning to `CCOC(=O)c1cc([N+](=O)[O-])c([N+](=O)[O-])cc1NC(C)=O`, the AC50 is 8.71 µM.

Turning to `O=C(CSc1nc(O)cc(=O)n1-c1ccccc1)NC1CCCCC1`, the AC50 was > 42 µM (inactive).

As for `CC(C)CC(=O)Nc1ccc(C(=O)CN2C(=O)NC3(CCOc4ccccc43)C2=O)cc1` (stereo unspecified), the AC50 is > 42 µM (inactive).

For `CCOC(=O)C1=C(C)NC(C)=C(C(=O)OCC)C1C(=O)OC1CCOC1=O` (stereo unspecified), the AC50 is > 42 µM (inactive).

`CN(C)C(=O)c1cc(C(=O)c2ccc(C(F)(F)F)cc2F)c[nH]1`: the AC50 is > 42 µM (inactive).

Take `CC(=O)c1ccc(NC(=O)CSc2nnc(-c3ccco3)o2)cc1`: the AC50 is > 42 µM (inactive).

Consider `CN(C(=O)CSc1nc(-c2ccccc2)c(-c2ccccc2)o1)C1CCS(=O)(=O)C1` (stereo unspecified), for which the AC50 is > 42 µM (inactive).

Consider `COc1ccc2[nH]cc(CCNS(=O)(=O)c3ccc(C)cc3)c2c1`, for which the AC50 was > 42 µM (inactive).

As to `COc1cccc(C2/C(=C(/O)c3ccccc3)C(=O)C(=O)N2Cc2ccco2)c1` (stereo unspecified), the AC50 was > 42 µM (inactive).

With `Cc1ccc(NC(=O)N[C@H](C(=O)O)C(C)C)c(C)c1`, the AC50 is > 42 µM (inactive).

On to `CN(C)C(=O)c1c2c(nc3ccccc13)CCCC2`, for which the AC50 was > 42 µM (inactive).

With `O=C(N/N=C/c1ccccc1)c1[nH]c2ccc(Br)cc2c1-c1ccccc1`, the AC50 is > 42 µM (inactive).

As to `O=C1CCc2cc(S(=O)(=O)N3CCC(C(=O)NC4CCCC4)CC3)ccc2N1`, the AC50 is > 42 µM (inactive).

As to `O=C(NCc1ccccn1)C1Nc2ccc(C(F)(F)F)cc2C2C=CCC12` (stereo unspecified), the AC50 was > 42 µM (inactive).
